Experimental data from publication PMC5007552, “The hVps34‐SGK3 pathway alleviates sustained PI3K/Akt inhibition by stimulating mTORC1 and tumour growth” (The EMBO Journal, 2016).
Where “and” joins values, the source holds several entries; their conditions need not be identical. Equal values may be shown once.

Tested on: ZR-75-1 cells
Assay: NanoString human kinome mRNA quantification
Type: cell-based
Text: Human mRNAs were hybridised to NanoString human kinome and control code sets, then subjected to quantification using NanoString software. […] To permit data compaction, and simple kinome‐wide comparisons, the fold changes are log2 transformed. […] Cell pellets were resuspended at a concentration of ~6,500 cells/μl in RLT buffer (Qiagen). […] For total copy numbers, triplicate normalised count values were averaged, and to calculate fold induction, means were divided by triplicate mean values from matched DMSO controls. P‐values were calculated using unpaired t‐test (GraphPad Prism software) by employing treated and control count data for each kinase mRNA.

NC1(c2ccc(-c3nc4ccn5c(=O)[nH]nc5c4cc3-c3ccccc3)cc2)CCC1 [MK-2206]
MAP2K6 Normalised counts (single replicates) (MAP2K6 mRNA, replicates 1-3): 273.54 and 301.57
MAP2K7 Normalised counts Average (MAP2K7 mRNA, average of 3): 452.7
MAP2K7 Normalised counts (single replicates) (MAP2K7 mRNA, replicates 1-3): 481.41 and 429.05 and 447.64
MAP3K1 Normalised counts Average (MAP3K1 mRNA, average of 3): 914.477
MAP3K1 Normalised counts (single replicates) (MAP3K1 mRNA, replicates 1-3): 890.44 and 933.79 and 919.2
MAP3K2 Normalised counts Average (MAP3K2 mRNA, average of 3): 686.32
MAP3K2 Normalised counts (single replicates) (MAP3K2 mRNA, replicates 1-3): 635.93 and 734.85 and 688.18
MAP3K3 Normalised counts Average (MAP3K3 mRNA, average of 3): 686.967
MAP3K3 Normalised counts (single replicates) (MAP3K3 mRNA, replicates 1-3): 685.93 and 665.35 and 709.62
MAP3K4 Normalised counts Average (MAP3K4 mRNA, average of 3): 878.993
MAP3K4 Normalised counts (single replicates) (MAP3K4 mRNA, replicates 1-3): 874.08 and 929.44 and 833.46
MAP3K5 Normalised counts Average (MAP3K5 mRNA, average of 3): 52.5933
MAP3K5 Normalised counts (single replicates) (MAP3K5 mRNA, replicates 1-3): 46.02 and 55.49 and 56.27
MAP3K6 Normalised counts Average (MAP3K6 mRNA, average of 3): 449.24
MAP3K6 Normalised counts (single replicates) (MAP3K6 mRNA, replicates 1-3): 420.51 and 453.37 and 473.84
MAP3K7 Normalised counts Average (MAP3K7 mRNA, average of 3): 743.277
MAP3K7 Normalised counts (single replicates) (MAP3K7 mRNA, replicates 1-3): 716.83 and 700.97 and 812.03
MAP3K8 Normalised counts Average (MAP3K8 mRNA, average of 3): 26.4033
MAP3K8 Normalised counts (single replicates) (MAP3K8 mRNA, replicates 1-3): 26.93 and 28.56 and 23.72
MAP3K9 Normalised counts Average (MAP3K9 mRNA, average of 3): 379.6
MAP3K9 Normalised counts (single replicates) (MAP3K9 mRNA, replicates 1-3): 365.97 and 402.99 and 369.84
MAP3K10 Normalised counts Average (MAP3K10 mRNA, average of 3): 168.847
MAP3K10 Normalised counts (single replicates) (MAP3K10 mRNA, replicates 1-3): 162.36 and 182.33 and 161.85
MAP3K11 Normalised counts Average (MAP3K11 mRNA, average of 3): 121.413
MAP3K11 Normalised counts (single replicates) (MAP3K11 mRNA, replicates 1-3): 113.28 and 123.25 and 127.71
MAP3K12 Normalised counts Average (MAP3K12 mRNA, average of 3): 52.4667
MAP3K12 Normalised counts (single replicates) (MAP3K12 mRNA, replicates 1-3): 51.47 and 61.57 and 44.36
MAP3K13 Normalised counts Average (MAP3K13 mRNA, average of 3): 189.707
MAP3K13 Normalised counts (single replicates) (MAP3K13 mRNA, replicates 1-3): 181.45 and 198.83 and 188.84
MAP3K14 Normalised counts Average (MAP3K14 mRNA, average of 3): 43.9833
MAP3K14 Normalised counts (single replicates) (MAP3K14 mRNA, replicates 1-3): 37.84 and 44.2 and 49.91
MAP3K15 Normalised counts Average (MAP3K15 mRNA, average of 3): 13.0267
MAP3K15 Normalised counts (single replicates) (MAP3K15 mRNA, replicates 1-3): 12.38 and 17.27 and 9.43
MAP4K1 Normalised counts Average (MAP4K1 mRNA, average of 3): 25.6067
MAP4K1 Normalised counts (single replicates) (MAP4K1 mRNA, replicates 1-3): 20.57 and 28.56 and 27.69
MAP4K2 Normalised counts Average (MAP4K2 mRNA, average of 3): 517.167
MAP4K2 Normalised counts (single replicates) (MAP4K2 mRNA, replicates 1-3): 521.4 and 514.19 and 515.91
MAP4K3 Normalised counts Average (MAP4K3 mRNA, average of 3): 998.393
MAP4K3 Normalised counts (single replicates) (MAP4K3 mRNA, replicates 1-3): 947.71 and 1044.12 and 1003.35
MAP4K4 Normalised counts Average (MAP4K4 mRNA, average of 3): 871.587
MAP4K4 Normalised counts (single replicates) (MAP4K4 mRNA, replicates 1-3): 808.64 and 924.23 and 881.89
MAP4K5 Normalised counts Average (MAP4K5 mRNA, average of 3): 2400.42
MAP4K5 Normalised counts (single replicates) (MAP4K5 mRNA, replicates 1-3): 2332.97 and 2437.58 and 2430.72
MAPK1 Normalised counts Average (MAPK1 mRNA, average of 3): 3519.07
MAPK1 Normalised counts (single replicates) (MAPK1 mRNA, replicates 1-3): 3459.18 and 3429.68 and 3668.36
MAPK3 Normalised counts Average (MAPK3 mRNA, average of 3): 2954.55
MAPK3 Normalised counts (single replicates) (MAPK3 mRNA, replicates 1-3): 2922.89 and 2952.74 and 2988.02
MAPK4 Normalised counts Average (MAPK4 mRNA, average of 3): 4.88
MAPK4 Normalised counts (single replicates) (MAPK4 mRNA, replicates 1-3): 3.29 and 5.1 and 6.25
MAPK6 Normalised counts Average (MAPK6 mRNA, average of 3): 1788.65
MAPK6 Normalised counts (single replicates) (MAPK6 mRNA, replicates 1-3): 1729.42 and 1778.2 and 1858.34
MAPK7 Normalised counts Average (MAPK7 mRNA, average of 3): 144.45
MAPK7 Normalised counts (single replicates) (MAPK7 mRNA, replicates 1-3): 156 and 134.55 and 142.8
MAPK8 Normalised counts Average (MAPK8 mRNA, average of 3): 551.453
MAPK8 Normalised counts (single replicates) (MAPK8 mRNA, replicates 1-3): 558.67 and 556.75 and 538.94
MAPK9 Normalised counts Average (MAPK9 mRNA, average of 3): 3428.01
MAPK9 Normalised counts (single replicates) (MAPK9 mRNA, replicates 1-3): 3385.55 and 3472.25 and 3426.23
MAPK10 Normalised counts Average (MAPK10 mRNA, average of 3): 51.74
MAPK10 Normalised counts (single replicates) (MAPK10 mRNA, replicates 1-3): 66.92 and 32.03 and 56.27
MAPK11 Normalised counts Average (MAPK11 mRNA, average of 3): 204.103
MAPK11 Normalised counts (single replicates) (MAPK11 mRNA, replicates 1-3): 193.27 and 212.73 and 206.31
MAPK12 Normalised counts Average (MAPK12 mRNA, average of 3): 217.317
MAPK12 Normalised counts (single replicates) (MAPK12 mRNA, replicates 1-3): 225.99 and 210.13 and 215.83
MAPK13 Normalised counts Average (MAPK13 mRNA, average of 3): 1105.76
MAPK13 Normalised counts (single replicates) (MAPK13 mRNA, replicates 1-3): 1118.59 and 1094.51 and 1104.17
MAPK14 Normalised counts Average (MAPK14 mRNA, average of 3): 677.43
MAPK14 Normalised counts (single replicates) (MAPK14 mRNA, replicates 1-3): 691.38 and 666.22 and 674.69
MAPK15 Normalised counts Average (MAPK15 mRNA, average of 3): 105.53
MAPK15 Normalised counts (single replicates) (MAPK15 mRNA, replicates 1-3): 90.56 and 110.22 and 115.81
MAPKAPK2 Normalised counts Average (MAPKAPK2 mRNA, average of 3): 1630.94
MAPKAPK2 Normalised counts (single replicates) (MAPKAPK2 mRNA, replicates 1-3): 1646.7 and 1595.77 and 1650.35
MAPKAPK3 Normalised counts Average (MAPKAPK3 mRNA, average of 3): 413.777
MAPKAPK3 Normalised counts (single replicates) (MAPKAPK3 mRNA, replicates 1-3): 380.52 and 429.05 and 431.76
MAPKAPK5 Normalised counts Average (MAPKAPK5 mRNA, average of 3): 1446.88
MAPKAPK5 Normalised counts (single replicates) (MAPKAPK5 mRNA, replicates 1-3): 1508.54 and 1415.94 and 1416.16
MARK1 Normalised counts Average (MARK1 mRNA, average of 3): 415.69
MARK1 Normalised counts (single replicates) (MARK1 mRNA, replicates 1-3): 399.6 and 430.79 and 416.68
MARK2 Normalised counts Average (MARK2 mRNA, average of 3): 1522.43
MARK2 Normalised counts (single replicates) (MARK2 mRNA, replicates 1-3): 1510.36 and 1537.56 and 1519.36
MARK3 Normalised counts Average (MARK3 mRNA, average of 3): 1279.49
MARK3 Normalised counts (single replicates) (MARK3 mRNA, replicates 1-3): 1275.85 and 1283.02 and 1279.61
MARK4 Normalised counts Average (MARK4 mRNA, average of 3): 1238.46
MARK4 Normalised counts (single replicates) (MARK4 mRNA, replicates 1-3): 1216.76 and 1258.7 and 1239.92
MAST1 Normalised counts Average (MAST1 mRNA, average of 3): 64.11
MAST1 Normalised counts (single replicates) (MAST1 mRNA, replicates 1-3): 68.74 and 54.62 and 68.97
MAST2 Normalised counts Average (MAST2 mRNA, average of 3): 721.127
